Key:
Experiment in all cases: Bliss excess, mean over the matrix (fraction); higher = more synergy
[1] = test system: BE-13 (T-Lymphoblastic Leukemia)
Outline: (§1)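 After 24 hours at 37°C and 5% CO2 in 1536-well plates, cells in DMEM/F12 or RPMI plus 10% FBS received two-drug dose matrices for 72 hours. Viability came from CellTiter-Glo 2.0 luminescence and was scaled as inhibition, anchored at 0 by vehicle wells and at 1 by blank wells. Combination Emax is taken as the second-highest inhibition in the matrix, and Bliss excess as the observed combination effect less EA + EB − EA·EB, with EA and EB the single-agent effects.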

[2] = test system: BE2-M17 (Neuroblastoma)
Outline: as §1

[3] = test system: CAL-33 (Oral Cavity Carcinoma)
Outline: as §1

[4] = test system: CAL-72 (Osteosarcoma)
Outline: as §1

[5] = test system: ESS-1 (Other Solid Carcinomas)
Outline: as §1

[6] = test system: HeLa (Cervical Carcinoma)
Outline: as §1

[7] = test system: HuH-7 (Hepatocellular Carcinoma)
Outline: as §1

[8] = test system: KMRC-20 (Kidney Carcinoma)
Outline: as §1

[9] = test system: KS-1 (Glioblastoma)
Outline: as §1

[10] = test system: KYAE-1 (Esophageal Adenocarcinoma)
Outline: as §1

[11] = test system: L-428 (Hodgkin's Lymphoma)
Outline: as §1

[12] = test system: LCLC-97TM1 (Non-Small Cell Lung Carcinoma)
Outline: as §1

[13] = test system: LNZTA3WT4 (Low Grade Glioma)
Outline: as §1

[14] = test system: LOXIMVI (Melanoma)
Outline: as §1

[15] = test system: LS-123 (Colorectal Carcinoma)
Outline: as §1

[16] = test system: NCI-H1568 (Lung Adenocarcinoma)
Outline: as §1

[17] = test system: NCI-H209 (Small Cell Lung Carcinoma)
Outline: as §1

[18] = test system: OV-56 (Ovarian Carcinoma)
Outline: as §1

[19] = test system: OVCAR-5 (Ovarian Carcinoma)
Outline: as §1

SMILES | Bliss excess [1] | Bliss excess [2] | Bliss excess [3] | Bliss excess [4] | Bliss excess [5] | Bliss excess [6] | Bliss excess [7] | Bliss excess [8] | Bliss excess [9] | Bliss excess [10] | Bliss excess [11] | Bliss excess [12] | Bliss excess [13] | Bliss excess [14] | Bliss excess [15] | Bliss excess [16] | Bliss excess [17] | Bliss excess [18] | Bliss excess [19]
C=CCn1c(=O)c2cnc(Nc3ccc(N4CCN(C)CC4)cc3)nc2n1-c1cccc(C(C)(C)O)n1 [AZD1775] + O=C(c1cc(Cc2n[nH]c(=O)c3ccccc23)ccc1F)N1CCN(C(=O)C2CC2)CC1 [Olaparib] (first compound max 1 µM, partner max 10 µM) | -0.0409 | -0.0486 | -0.0073 | -0.0871 | -0.0316 | 0.0346 | -0.0107 | -0.112 | -0.0097 | -0.0006 | -0.0252 | -0.0833 | -0.0395 | -0.0897 | -0.0694 | -0.0745 | -0.0579 | -0.0576 | -0.041
C[C@@H]1COCCN1c1cc(C2([S@](C)(=N)=O)CC2)nc(-c2ccnc3[nH]ccc23)n1 [AZD6738] + O=C(c1cc(Cc2n[nH]c(=O)c3ccccc23)ccc1F)N1CCN(C(=O)C2CC2)CC1 [Olaparib] (first compound max 10 µM, 7x7, partner max 10 µM) | 0.0278 | -0.0176 | 0.0047 | -0.0183 | 0.0107 | 0.0497 | 0.0569 | -0.0101 | 0 | -0.0082 | 0.0227 | -0.0539 | -0.0197 | -0.0956 | 0.0192 | -0.0358 | -0.0599 | -0.0159 | -0.0994
CN(C)CCCOc1ccc(-c2ccc3ncc4c(c3c2)n(C2CCOCC2)c(=O)n4C)cn1 [AZD0156] + C[C@@H]1COCCN1C2=NC(=NC(=C2)C3(CC3)[S@](=N)(=O)C)C4=C5C=CNC5=NC=C4 [AZD6738] (first compound max 1 µM, 7x7, partner max 10 µM) | -0.0619 | 0.0914 | -0.0178 | 0.111 | -0.0177 | -0.0217 | 0.0196 | -0.031 | -0.0267 | -0.011 | 0.0132 | -0.0039 | -0.0016 | 0.0721 | -0.0313 | -0.0424 | 0.0711 | 0.0361 | -0.001
CCc1c2c(nc3ccc(O)cc13)-c1cc3c(c(=O)n1C2)COC(=O)[C@]3(O)CC [SN-38] + O=C(c1cc(Cc2n[nH]c(=O)c3ccccc23)ccc1F)N1CCN(C(=O)C2CC2)CC1 [Olaparib] (first compound max 0.3 µM, 7x7, partner max 10 µM) | 0.0503 | 0.0082 | 0.0519 | 0.113 | 0.0735 | 0.0232 |  |  | 0.0068 | -0.0184 | 0.0367 |  | -0.0114 | 0.0214 | 0.0301 |  |  |  | -0.0161
C[C@@H]1COCCN1c1cc(C2([S@](C)(=N)=O)CC2)nc(-c2ccnc3[nH]ccc23)n1 [AZD6738] + Nc1ccn([C@@H]2O[C@H](CO)[C@@H](O)C2(F)F)c(=O)n1 [Gemcitabine] (first compound max 10 µM, 7x7, partner max 0.3 µM) | 0.153 |  |  | 0.0282 | 0.0734 |  |  |  | 0.0043 | -0.0077 |  |  | 0.186 | 0.0221 | 0.104 |  |  |  | -0.0407
Cc1nc(-c2cn3c(n2)-c2ccc(-c4cnn(C(C)(C)C(N)=O)c4)cc2OCC3)n(C(C)C)n1 [Taselisib] + O=C(Nc1ccc2[nH]nc(-c3ccncc3)c2c1)[C@@H]1CCN(CC(=O)N2CCN(c3ccc(-c4ncccn4)cc3)CC2)C1 [SCH772984] (first compound max 10 µM, 7x7, partner max 5 µM) | -0.0347 |  |  | -0.0562 | 0.0682 |  |  |  | 0.0097 | -0.0018 |  |  | -0.0617 | 0.091 | 0.0028 |  |  |  | 0.0022
C=CCn1c(=O)c2cnc(Nc3ccc(N4CCN(C)CC4)cc3)nc2n1-c1cccc(C(C)(C)O)n1 [AZD1775] + CCc1c2c(nc3ccc(O)cc13)-c1cc3c(c(=O)n1C2)COC(=O)[C@]3(O)CC [SN-38] (first compound max 1 µM, partner max 0.3 µM) | -0.0186 |  |  | 0.017 | -0.0011 |  |  |  | -0.0389 | -0.0013 |  |  | -0.0414 | -0.0862 | -0.0581 |  |  |  | -0.0215
O=C(c1cc(Cc2n[nH]c(=O)c3ccccc23)ccc1F)N1CCN(C(=O)C2CC2)CC1 [Olaparib] + CC1(C)CCC(CN2CCN(c3ccc(C(=O)NS(=O)(=O)c4ccc(NCC5CCOCC5)c([N+](=O)[O-])c4)c(Oc4cnc5[nH]ccc5c4)c3)CC2)=C(c2ccc(Cl)cc2)C1 [Venetoclax] (first compound max 10 µM, 7x7, partner max 1 µM) | -0.0238 |  |  | -0.0215 | -0.0103 |  |  |  | -0.0442 | -0.0116 |  |  | -0.0739 | 0.0029 | -0.0413 |  |  |  | -0.061
Cc1c2c(nn1C)CSCc1cc(n(C)n1)CSc1cc(c3ccccc3c1)OCCCc1c(C(=O)O)n(C)c3c-2c(Cl)ccc13 [AZD5991] + Nc1ccn([C@@H]2O[C@H](CO)[C@@H](O)C2(F)F)c(=O)n1 [Gemcitabine] (first compound max 1 µM, 7x7, partner max 0.3 µM) | -0.0088 |  |  | 0.0305 | -0.0338 |  |  |  | -0.0354 | 0.0034 |  |  | 0.0625 | -0.0338 | -0.0176 |  |  |  | -0.0442
C[C@@H](Nc1cc(F)cc(F)c1)c1cc(C(=O)N(C)C)cc2c(=O)cc(N3CCOCC3)oc12 [AZD8186] + CC(=O)c1c(C)c2cnc(Nc3ccc(N4CCNCC4)cn3)nc2n(C2CCCC2)c1=O [Palbociclib] (first compound max 10 µM, 7x7, partner max 10 µM) | -0.0165 |  |  | 0.0075 | -0.0114 |  |  |  | 0.0069 | -0.0036 |  |  | 0.111 | 0.0909 | 0.0701 |  |  |  | 0.0014
O=C(c1cc(Cc2n[nH]c(=O)c3ccccc23)ccc1F)N1CCN(C(=O)C2CC2)CC1 [Olaparib] + Cc1c2c(nn1C)CSCc1cc(n(C)n1)CSc1cc(c3ccccc3c1)OCCCc1c(C(=O)O)n(C)c3c-2c(Cl)ccc13 [AZD5991] (first compound max 10 µM, 7x7, partner max 1 µM) | 0.0142 |  |  | -0.0242 | -0.0255 |  |  |  | -0.0463 | 0.0031 |  |  | -0.0468 | -0.0409 | -0.0658 |  |  |  | -0.0729

From the supplement of paper PMC11061612
